Experiments:
TamR-tf (HEA3) [1] = assay: ZsGreen expression by flow cytometry in Jurkat cells transduced with dual packaged TamR ZsGreen lentivirus (constructs A and B); format: cell-based, human; settings: 500 nM 4OHT for 24 hours, flow cytometry (FIG. 1)
Excerpt: An alternative of the TamR-LV system allows for constitutive HEA3 expression and inducible expression of either ZsGreen or chimeric antigen receptors, permitting kinetic analysis and biological effect controlled in an “ON” and “OFF” manner by the presence or absence of tamoxifen. For this, two constructs were used: 1) HEA-3 is driven by the human EF1 a promoter and linked to the constructed truncated EGFR (EGFRt) transmembrane marker protein by a T2A skip-linker sequence and cloned into a third generation epHIV7 self-inactivating lentivirus packaging plasmid (construct A). (See FIGS. 9A, 9B and 9C; SEQ ID NO: 39; Table 1: SEQ ID NO: 8 and SEQ ID NO: 9) and 2) 7xHBD/[…] controls tamoxifen-dependent expression of ZsGreen cloned into pcDNA3.1(−) which was engineered to lack the commercially used CMV promoter (construct B) (See Table 12; SEQ ID NO: 41). ZsGreen1 is a human codon-optimized ZsGreen variant that encodes the brightest commercially available green fluorescent protein. (Available from Clontech).
Jurkat cells were transduced at a MOI of 5 with lentivirus packaging constructs described above in which a dual packaging approach in which each plasmid is co-transfected into 293T cells during lentiviral production. […]

TamR-tf (HEA3) [2] = assay: On and off rate kinetics of ZsGreen expression in transduced Jurkat cells (4OHT washout and re-stimulation); format: cell-based, human
Excerpt: (§1) Jurkat cells were transduced at a MOI of 5 with lentivirus packaging constructs described above in which a dual packaging approach in which each plasmid is co-transfected into 293T cells during lentiviral production. This construct utilized molar ratio of 1:2 of construct A to construct B. Construct A encodes the chimeric transcription factor HEA3 linked via a ribosomal cleavage sequence, T2A, to the tracking and selection marker EGFRt. Construct B encodes the synthetic, HEA3-responsive promoter, 7xHBD/mE1b which regulates expression of the transgene ZsGreen-DR1, a short half-life green fluorescent reporter gene.
The population was subjected to 500 nM 4OHT stimulation for 48 hours, and then sorted for ZsGreen+cells utilizing FACS, yielding a >99% ZsGreen+population on immediate post-sort analysis. Cells were subsequently expanded in culture for 3 weeks, and then prepared for kinetic studies. Cells were divided into 3 treatment groups: (1) no 4OHT (2) 200 nM 4OHT (added every 48 hours) (3) 24 hour 200 nM 4OHT, followed by washout 1× in PBS, then culture in 4OHT free media for 14 days, followed by a 24 hour re-stimulation with 200 nm 4OHT, and then washout in 1×PBS. At each time point, samples were harvested and analyzed via flow cytometry for ZsGreen expression. Results are shown in FIG. 3 and are presented as % ZsGreen+.

TamR-tf (HEA3) [3] = assay: 4OHT dose response of ZsGreen expression in transduced Jurkat cells; format: cell-based, human; settings: 4OHT 0 nM-1000 nM, flow cytometry (FIG. 2)
Excerpt: as §1
Cells were harvested and were then subjected to treatment with 4OHT with concentrations ranging from 0 nM-1000 nM, as indicated. Samples were harvested, washed, and stained with EGFRt-biotin, followed by strepavidin-APC, and then analyzed by flow cytometry for ZsGreen expression.

TamR-tf (HEA3) [4] = assay: Inducible CD19CAR/Her2t expression in Jurkat cells transduced with TamR CD19CAR LV containing DHFRdm (flow cytometry and western blot); format: cell-based, human; settings: construct including DHFRdm, 500 nM 4OHT (FIG. 7)
Experimental: Construction of TamR CD19CAR LV was done through dual packaging of constructs A and B. Construct A contains HEA3 linked via a ribosomal cleavage sequence, T2A, to the tracking and selection marker EGFRt.
Cells were transduced with TamR CD19CAR LV at a MOI of 1, expanded in culture, selected for EGFRt via magnetic bead selection. Following further expansion cells were treated with […] alone (EtOH) or 500 nM 4OHT, and harvested for flow cytometry, (upper panel). FIG. 7. Samples were stained with EGFRt-APC antibody and Herceptin-biotin, followed by SA-PE. Parental (untransduced Jurkat) is shown for comparison. Samples were also prepared for western blot, the primary antibody used is an anti-CD247 mouse mAb which recognizes the intracellular CD3 zeta chain on the CD19CAR (˜48 kDa). The endogenous CD3 zeta migrates at ˜23 kDa.

TamR-tf (HEA3) [5] = assay: Inducible CD19CAR/Her2t expression in Jurkat cells transduced with TamR-CD19CAR LV (flow cytometry and western blot); format: cell-based, human; settings: construct not including DHFRdm, 500 nM 4OHT (FIG. 6)
Excerpt: Construction of the vector was accomplished by dual packaging of transfer plasmids housing constructs as described above at a plasmid molar ratio of 1:1. (See FIGS. 6C and 7C) Construct A under the constitutive EF-lalpha promoter encodes TamR-tf (HEA3) linked via a ribosomal cleavage sequence, T2A, to the tracking and selection marker EGFRt. (See FIGS. 9A, 9B and 9C; SEQ ID NO: 39, Table 1: SEQ ID NO: 8 and SEQ ID NO: 9) Construct B contains the 7xHBD/mE1b promoter with downstream transgene cDNA including CD19CAR linked via 2a cleavage sequence to Her2t, a tracking and selection marker. (See Table 12; SEQ ID NO: 41; Table 2 SEQ ID NO: 10; FIG. 11; SEQ ID NO: 44). Another construct was prepared adding an additional selective marker DHFRdm (See FIG. 12; SEQ ID NO: 46).
Human Jurkat cells were transduced at a MOI of 2, then were expanded in culture, and selected for EGFRt+ cells via magnetic bead selection. After further expansion, cells were either treated with vehicle alone (EtOH) or 500 nM 4OHT, and harvested for flow cytometry. Samples were stained with EGFRt-APC antibody and Herceptin-biotin, followed by SA PE. Samples were also prepared for western blot, the primary antibody used is an anti-CD247 mouse mAb which recognizes the intracellular CD3 zeta chain on the CD19CAR (˜48 kDa). The endogenous CD3 zeta migrates at ˜23 kDa.

TamR-tf (HEA3) [6] = assay: ZsGreen expression in primary CD8 central memory cells transduced with constructs A and B; format: cell-based, human; settings: inducer plus antiCD3/anti-CD28 beads (FIG. 5B)
Experimental: CD8 central memory cells were obtained from peripheral blood by selecting cells through flow cytometry for markers CD8, and CD62L and negative for CD45RO. Cells were cultured with anti-CD3/anti-CD28 beads for 3 days.
as §1, with “After 3 days, CD4 or CD8 central memory” for “Jurkat”
(§2) On day 21 after transduction, cells were enriched for EGFRt, and subsequently expanded with feeder cells, IL2, and IL15. Following expansion, cells were divided into 3 treatment groups, 4OHT alone (A), 4OHT combined with CD3/CD28 bead cotreatment (B) or 4OHT alone for 48 hours, followed by addition of CD3/CD28 beads (C). […] All samples were harvested at indicated time points following 4OHT treatment, stained with EGFRt-biotin antibody, followed by SA-APC, and analyzed for flow cytometry. […]

TamR-tf (HEA3) [7] = assay: Inducible Her2t expression in human CD4 central memory T cells transduced with TamR CD19CAR LV (with DHFRdm); format: cell-based; settings: 500 nM 4OHT for 24 hours plus antiCD3/antiCD28 beads (FIG. 8)
Experimental: CD4 central memory cells were obtained from peripheral blood by selecting cells through flow cytometry for markers CD4, and CD62L and negative for CD45RO. Cells were cultured anti-CD3/anti-CD28 beads for 3 days. After 3 days, CD4 Central memory cells were transduced at a MOI of 5 with a lentivirus which packages constructs A and B. (FIG. 8B). Construct A encodes the chimeric transcription factor HEA3 linked via a ribosomal cleavage sequence, T2A, to the tracking and selection marker EGFRt. (See FIGS. 9A, 9B and 9C; SEQ ID NO: 39; Table 1; SEQ ID NO: 8 and SEQ ID NO: 9). […] (See Table 12; SEQ ID NO: 41; Table 2 SEQ ID NO: 10; FIG. 11; SEQ ID NO: 44; FIG. 12; SEQ ID NO: 46).
On day 21 after transduction, cells were enriched for EGFRt utilizing magnetic bead selection, and subsequently expanded with irradiated feeder cells, IL2, and IL15. Two weeks after expansion, cells were cryopreserved. In the experiment depicted above, CD4+ CEM cells which were mock transduced, or CD4+TamR CD19CAR LV were thawed, placed in culture with CD3/CD28 beads, IL-2, IL-15. CD4+TamRCD19CAR LV were treated or not with 500 nM 4OHT for 24 hours. All samples were harvested washed, then stained with an EGFRt-APC antibody and Her2t-biotin, followed by SA-PE, and analyzed via flow cytometry.

TamR-tf (HEA3) [8] = assay: ZsGreen expression in primary CD4 central memory cells transduced with constructs A and B; format: cell-based, human; settings: inducer plus antiCD3/anti-CD28 beads (FIG. 4B)
Experimental: CD4 central memory cells were obtained from peripheral blood by selecting cells through flow cytometry for markers CD4, and CD62L and negative for CD45RO. Cells were cultured with anti-CD3/anti-CD28 beads for 3 days.
as §1, with “After 3 days, CD4 or CD8 central memory” for “Jurkat”
as §2

Q: Which “cells expressing ZsGreen” value (TamR-tf (HEA3) [1]) does the source give for `CC/C(=C(\c1ccc(O)cc1)c1ccc(OCCN(C)C)cc1)c1ccccc1` [4-OHT, 4-hydroxytamoxifen] here?
A: about 50%

Q: And the “ZsGreen expression after 4-OHT washout, % of the max ZsGreen activity” value (TamR-tf (HEA3) [2]; 200 nM 4OHT then washout, within 5 days (FIG. 3))?
A: less than 10%

Q: And the “ZsGreen activity after 4-OHT is added back, % max activity” value (TamR-tf (HEA3) [2]; re-stimulation with 200 nM 4OHT, within 2 days (FIG. 3))?
A: about 100%

Q: What about the “concentration effective to induce expression of the transgene (ZsGreen)” value (TamR-tf (HEA3) [3]) of the same compound?
A: ≥ 200 nM

Q: With `CC/C(=C(\c1ccccc1)c1ccc(OCCN(C)C)cc1)c1ccccc1` [tamoxifen, 2-(4-((1Z)-1,2-diphenyl-1-butenyl)phenoxy)-N,N-dimethyl-ethanamine] as the compound, how does the “cells expressing both EGFRt and Her2t” value (TamR-tf (HEA3) [4]) read?
A: about 7.5%

Q: And the “cells expressing both EGFRt and Her2t” value (TamR-tf (HEA3) [5])?
A: about 42.6%

Q: And the “primary transduced CD8 cells expressing ZsGreen” value (TamR-tf (HEA3) [6])?
A: About 37%

Q: And the “primary cells expressing both EGFRt and Her2t” value (TamR-tf (HEA3) [7])?
A: about 14.7%

Q: What about the “primary transduced CD4 cells expressing ZsGreen” value (TamR-tf (HEA3) [8]) of the same compound?
A: About 70%
